Data taken from patent US9422285B2, “Substituted pyrazolo[1,5-A]-pyridine-3-carboxamides and use thereof” (Bayer Pharma Aktiengesellschaft, priority 2014, dated 2016).
Counter-ions that a name gives are not always drawn.

These compounds were tested against T1, recombinant guanylate cyclase reporter cell line (Rattus norvegicus, UniProt P19686+P20595) (assay: Effect on a recombinant guanylate cyclase reporter cell line (B-2)). Details: in some cases mean values for individual determinations.
T1 construct: expressed in transfected cells
T1 sequence (P19686 1-690): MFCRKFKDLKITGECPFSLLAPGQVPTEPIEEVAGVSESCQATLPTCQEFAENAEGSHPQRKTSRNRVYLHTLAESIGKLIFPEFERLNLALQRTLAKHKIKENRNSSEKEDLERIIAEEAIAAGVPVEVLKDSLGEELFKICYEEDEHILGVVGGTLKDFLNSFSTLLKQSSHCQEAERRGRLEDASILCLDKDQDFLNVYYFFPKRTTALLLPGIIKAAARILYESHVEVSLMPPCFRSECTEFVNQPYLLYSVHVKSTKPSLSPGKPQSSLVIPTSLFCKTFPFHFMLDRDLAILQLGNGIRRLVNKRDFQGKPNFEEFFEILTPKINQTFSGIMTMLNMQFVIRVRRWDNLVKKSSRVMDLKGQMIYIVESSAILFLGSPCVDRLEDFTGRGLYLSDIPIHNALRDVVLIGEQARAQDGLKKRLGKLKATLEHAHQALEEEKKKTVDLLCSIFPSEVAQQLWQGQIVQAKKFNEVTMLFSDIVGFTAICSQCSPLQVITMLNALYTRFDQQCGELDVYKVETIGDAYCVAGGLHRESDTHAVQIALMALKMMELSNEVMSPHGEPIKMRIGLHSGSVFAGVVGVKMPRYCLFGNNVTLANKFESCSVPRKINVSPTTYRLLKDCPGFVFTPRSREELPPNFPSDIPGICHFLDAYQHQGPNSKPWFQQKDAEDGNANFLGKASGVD
T1 sequence (P20595 1-619): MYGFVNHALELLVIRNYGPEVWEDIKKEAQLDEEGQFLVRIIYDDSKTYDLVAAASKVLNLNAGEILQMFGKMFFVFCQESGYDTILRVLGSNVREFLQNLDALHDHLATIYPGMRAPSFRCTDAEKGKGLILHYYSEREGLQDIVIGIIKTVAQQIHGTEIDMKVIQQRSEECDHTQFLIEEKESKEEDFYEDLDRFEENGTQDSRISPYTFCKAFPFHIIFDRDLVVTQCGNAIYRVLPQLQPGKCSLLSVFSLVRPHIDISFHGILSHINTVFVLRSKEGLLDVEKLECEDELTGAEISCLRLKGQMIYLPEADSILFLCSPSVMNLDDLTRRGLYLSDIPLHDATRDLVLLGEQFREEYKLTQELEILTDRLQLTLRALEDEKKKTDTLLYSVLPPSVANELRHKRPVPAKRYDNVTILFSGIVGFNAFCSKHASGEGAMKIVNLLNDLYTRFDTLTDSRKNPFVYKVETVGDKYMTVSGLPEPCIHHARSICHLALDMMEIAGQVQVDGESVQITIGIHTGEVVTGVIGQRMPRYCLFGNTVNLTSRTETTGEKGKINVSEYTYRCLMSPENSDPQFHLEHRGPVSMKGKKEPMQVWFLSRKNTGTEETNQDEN
Format: cell-based
Description: B-2. Effect on a Recombinant Guanylate Cyclase Reporter Cell Line
The cellular effect of the inventive compounds is determined using a recombinant guanylate cyclase reporter cell line, as described in F. Wunder et al., Anal. Biochem. 339, 104-112 (2005).
Representative MEC values (MEC=minimum effective concentration) for the inventive compounds are shown in the table below (in some cases as mean values for individual determinations): […]

Question: How did the “MEC (minimum effective concentration)” value turn out when `Cc1cc(OCc2c(F)ccc(F)c2F)n2nc(C)c(C(=O)NCc3ccc(Cl)nc3)c2c1` [Example 21, N-[(6-Chloropyridin-3-yl)methyl]-2,5-dimethyl-7-[(2,3,6-trifluorobenzyl)oxy]pyrazolo[1,5-a]pyridine-3-carboxamide] was run?
Answer: The value was 0.3 µM.

Question: For `COC(=O)C12CC3CC(CC(CNC(=O)c4c(C)nn5c(OCc6c(F)cccc6F)cc(C)cc45)(C3)C1)C2` [Example 155, Methyl 3-{[({7-[(2,6-difluorobenzyl)oxy]-2,5-dimethylpyrazolo[1,5-a]pyridin-3-yl}carbonyl)amino]methyl}adamantane-1-carboxylate], which “MEC (minimum effective concentration)” value is on record?
Answer: Its value is 1.0 µM.

Question: Which “MEC (minimum effective concentration)” value does the source give for `CCCC(C)(N)CNC(=O)c1c(C)nn2c(OCc3c(F)ccc(OC)c3F)cc(C)cc12` (racemic) [Example 161, rac-N-(2-Amino-2-methylpentyl)-7-[(2,6-difluoro-3-methoxybenzyl)oxy]-2,5-dimethylpyrazolo[1,5-a]pyridine-3-carboxamide] here?
Answer: The value was 3.0 µM.

Question: For `Cc1cc(OCc2c(F)cccc2F)n2nc(C)c(C(=O)NCC3CNCCO3)c2c1` (racemic) [Example 142, rac-7-[(2,6-Difluorobenzyl)oxy]-2,5-dimethyl-N-(morpholin-2-ylmethyl)pyrazolo[1,5-a]pyridine-3-carboxamide], which “MEC (minimum effective concentration)” value is on record?
Answer: Its value is 10 µM.

Question: With `Cc1cc(OCc2c(F)cccc2F)n2nc(C)c(C(=O)NC3CC[C@@H]4NCC[C@H]34)c2c1` (relative stereo) [Example 122, rel-7-[(2,6-Difluorobenzyl)oxy]-2,5-dimethyl-N-[(3aR,6aR)-octahydrocyclopenta[b]pyrrol-4-yl]pyrazolo[1,5-a]pyridine-3-carboxamide] as the compound, how does the “MEC (minimum effective concentration)” value read?
Answer: Its value is 10 µM.

Question: Which “MEC (minimum effective concentration)” value does the source give for `CCCc1nn2c(OCc3c(F)cccc3F)cc(C)cc2c1C(=O)NCC(C)(N)CCC` (single isomer, unassigned) [Example 51, ent-N-(2-Amino-2-methylpentyl)-7-[(2,6-difluorobenzyl)oxy]-5-methyl-2-propylpyrazolo[1,5-a]pyridine-3-carboxamide] here?
Answer: Its value is 1.0 µM.

Question: With `Cc1cc(OCc2c(F)cccc2F)n2nc(C)c(C(=O)NC3CCOc4c(Cl)cccc43)c2c1` (racemic) [Example 147, rac-N-(8-Chloro-3,4-dihydro-2H-chromen-4-yl)-7-[(2,6-difluorobenzyl)oxy]-2,5-dimethylpyrazolo[1,5-a]pyridine-3-carboxamide] as the compound, how does the “MEC (minimum effective concentration)” value read?
Answer: The value was 0.3 µM.

Question: With `Cc1cc(OCc2c(F)cccc2F)n2nc(C)c(C(=O)N[C@@H](CO)c3ccc(C)o3)c2c1` [Example 177, 7-[(2,6-Difluorobenzyl)oxy]-N-[(1S)-2-hydroxy-1-(5-methy1-2-furyl)ethyl]-2,5-dimethylpyrazolo[1,5-a]pyridine-3-carboxamide] as the compound, how does the “MEC (minimum effective concentration)” value read?
Answer: The value was 1.0 µM.

Question: Which “MEC (minimum effective concentration)” value does the source give for `Cc1cc(OCc2c(F)cccc2F)n2nc(C)c(C(=O)NNC(=O)CN3CCCCC3)c2c1` [Example 174, 7-[(2,6-Difluorobenzyl)oxy]-2,5-dimethyl-N′-(piperidin-1-ylacetyl)pyrazolo[1,5-a]pyridine-3-carbohydrazide] here?
Answer: Its value is 1.0 µM.

Question: With `CCOC(=O)c1cccc(C(CN)NC(=O)c2c(C)nn3c(OCc4c(F)cccc4F)cc(C)cc23)n1` (racemic) [Example 83, rac-Ethyl 6-{2-amino-1-[({7-[(2,6-difluorobenzyl)oxy]-2,5-dimethylpyrazolo[1,5-a]pyridin-3-yl}carbonyl)amino]ethyl} pyridine-2-carboxylate trifluoroacetate] as the compound, how does the “MEC (minimum effective concentration)” value read?
Answer: Its value is 3.0 µM.

Question: Which “MEC (minimum effective concentration)” value does the source give for `Cc1cc(OCc2c(F)ccc(F)c2F)n2nc(C)c(C(=O)NCCC3(O)CCCC3)c2c1` [Example 5, N-[2-(1-Hydroxycyclopentyl)ethyl]-2,5-dimethyl-7-[(2,3,6-trifluorobenzyl)oxy]pyrazolo[1,5-a]pyridine-3-carboxamide] here?
Answer: The value was 0.3 µM.

Question: `Cc1cc(OCc2c(F)cccc2F)n2nc(C)c(C(=O)NCC(N)c3ccc4c(c3)OCCO4)c2c1` (racemic) [Example 110, rac-N-[2-Amino-2-(2,3-dihydro-1,4-benzodioxin-6-yl)ethyl]-7-[(2,6-difluorobenzyl)oxy]-2,5-dimethylpyrazolo[1,5-a]pyridine-3-carboxamide] was tested. Which “MEC (minimum effective concentration)” value did it give?
Answer: The value was 3.0 µM.

Question: With `CC=CCC(N)CNC(=O)c1c(C)nn2c(OCc3c(F)cccc3F)cc(C)cc12` (racemic) [Example 115, rac-N-[2-Aminohex-4-en-1-yl]-7-[(2,6-difluorobenzyl)oxy]-2,5-dimethylpyrazolo[1,5-a]pyridine-3-carboxamide] as the compound, how does the “MEC (minimum effective concentration)” value read?
Answer: Its value is 0.3 µM.

Question: Which “MEC (minimum effective concentration)” value does the source give for `Cc1cc(OCc2c(F)ccc(F)c2F)n2nc(C)c(C(=O)NC3CC4CCCC(C3)N4C)c2c1` (centres unmarked) [Example 29, 2,5-Dimethyl-N-(9-methyl-9-azabicyclo[3.3.1]non-3-yl)-7-[(2,3,6-trifluorobenzyl)oxy]pyrazolo[1,5-a]pyridine-3-carboxamide] here?
Answer: The value was 0.3 µM.

Question: With `Cc1cc(OCc2c(F)cccc2F)n2nc(C)c(C(=O)NCCN3CCN(C)CC3)c2c1` [Example 93, 7-[(2,6-Difluorobenzyl)oxy]-2,5-dimethyl-N-[2-(4-methylpiperazin-1-yl)ethyl]pyrazolo[1,5-a]pyridine-3-carboxamide] as the compound, how does the “MEC (minimum effective concentration)” value read?
Answer: Its value is 10 µM.

Question: How did the “MEC (minimum effective concentration)” value turn out when `CCC(C)(N)CNC(=O)c1c(C2CC2)nn2c(OCc3c(F)cccc3F)cc(C)cc12` (single isomer, unassigned) [Example 54, ent-N-(2-Amino-2-methylbutyl)-2-cyclopropyl-7-[(2,6-difluorobenzyl)oxy]-5-methylpyrazolo[1,5-a]pyridine-3-carboxamide] was run?
Answer: Its value is 0.3 µM.

Question: How did the “MEC (minimum effective concentration)” value turn out when `Cc1cc(OCc2c(F)cccc2F)n2nc(C)c(C(=O)NCC(N)CC(F)(F)F)c2c1` (racemic) [Example 107, rac-N-(2-Amino-4,4,4-trifluorobutyl)-7-[(2,6-difluorobenzyl)oxy]-2,5-dimethylpyrazolo[1,5-a]pyridine-3-carboxamide] was run?
Answer: The value was 3.0 µM.

Question: For `Cc1cc(OCc2c(F)ccc(F)c2F)n2nc(C)c(C(=O)Nc3cnn(CCO)c3)c2c1` [Example 33, N-[1-(2-Hydroxyethyl)-1H-pyrazol-4-yl] -2,5-dimethyl-7-[(2,3,6-trifluorobenzyl)oxy]pyrazolo[1,5-a]pyridine-3-carboxamide], which “MEC (minimum effective concentration)” value is on record?
Answer: Its value is 3.0 µM.

Question: How did the “MEC (minimum effective concentration)” value turn out when `Cc1cc(OCc2c(F)cccc2F)n2nc(C)c(C(=O)NCC(C)(N)CCCF)c2c1` (single isomer, unassigned) [Example 44, ent-N-(2-Amino-5-fluoro-2-methylpentyl)-7-[(2,6-difluorobenzyl)oxy]-2,5-dimethylpyrazolo[1,5-a]pyridine-3-carboxamide] was run?
Answer: The value was 0.3 µM.

Question: With `Cc1cc(OCc2c(F)cccc2F)n2nc(C)c(C(=O)NC3Cc4ccccc4C3N)c2c1` (centres unmarked) [Example 70, N-(1-Amino-2,3-dihydro-1H-inden-2-yl)-7-[(2,6-difluorobenzyl)oxy]-2,5-dimethylpyrazolo[1,5-a]pyridine-3-carboxamide] as the compound, how does the “MEC (minimum effective concentration)” value read?
Answer: The value was 3.0 µM.

Question: Which “MEC (minimum effective concentration)” value does the source give for `CCCC(C)(N)CNC(=O)c1c(C)nn2c(OCc3c(F)cccc3Cl)cc(C)cc12` (racemic) [Example 164] here?
Answer: The value was 1.0 µM.

Question: Which “MEC (minimum effective concentration)” value does the source give for `Cc1cc(OCc2c(F)cccc2F)n2nc(C)c(C(=O)NCC(C)(N)CC(F)F)c2c1` (single isomer, unassigned) [Example 47, ent-N-(2-Amino-4,4-difluoro-2-methylbutyl)-7-[(2,6-difluorobenzyl)oxy]-2,5-dimethylpyrazolo[1,5-a]pyridine-3-carboxamide] here?
Answer: Its value is 1.0 µM.

Question: How did the “MEC (minimum effective concentration)” value turn out when `Cc1cc(OCc2c(F)ccc(F)c2F)n2nc(C)c(C(=O)NCc3ccccc3-c3cccnc3)c2c1` [Example 14, 2,5-Dimethyl-N-[2-(pyridin-3-yl)benzyl]-7-[(2,3,6-trifluorobenzyl)oxy]pyrazolo[1,5-a]pyridine-3-carboxamide] was run?
Answer: Its value is 0.3 µM.
